Consider 13 compounds from ChEMBL document CHEMBL1140364, “Anxiolytic effects of benzalphthalides” (2005).

Holding throughout (assay type): functional
Experiment [1] has as its system Mus musculus. In words: Total number of entries into the open and closed arms of the maze for anxiolytic activity in ICR mouse through elevated plus test after intraperitoneal injection of 15 mg/kg.
For experiment [2], the system named is Mus musculus. In words: Percentage number of entries into the open arms of the maze for anxiolytic activity in ICR mouse through elevated plus test after intraperitoneal injection of 15 mg/kg.
The test system of experiment [3] is Mus musculus. Briefly: Number of entries into the closed arms of the maze for anxiolytic activity in ICR mouse through elevated plus test after intraperitoneal injection of 15 mg/kg.
Experiment [4] relates to Mus musculus. Briefly: Time spent into the open arms of the maze for anxiolytic activity in ICR mouse through elevated plus maze test after intraperitoneal injection of 15 mg/kg.
For experiment [5], the system named is Mus musculus. In words: Number of entries into the open arms of the maze for anxiolytic activity in ICR mouse through elevated plus maze test after intraperitoneal injection of 15 mg/kg.

For `CN1C(=O)CN=C(c2ccccc2)c2cc(Cl)ccc21` [DIAZEPAM], the “Total number of entries” value with Mus musculus [1] came out at 19.5. Moreover, the No. of entries came out at 82% in the experiment on Mus musculus [2], 3.7 with Mus musculus [3] and 15.8 in the experiment with Mus musculus [5]. Besides, the Spent time in the experiment on Mus musculus [4] turned out to be 0.064 h.

Take `C[S+]([O-])c1ccc(/C=C2\OC(=O)c3ccccc32)cc1` (stereo not given): in the experiment on Mus musculus [1], the “Total number of entries” value was 19.8. The values for the No. of entries in the experiment on Mus musculus [2], with Mus musculus [3] and with Mus musculus [5] were 55.6%, 9 and 10.8, respectively. Also, the Spent time in the experiment on Mus musculus [4] amounted to 0.0427 h.

Regarding `COc1ccc(/C=C2\OC(=O)c3ccc(C(N)=O)cc32)cc1`, in the experiment on Mus musculus [1], the “Total number of entries” value was 24. For the same compound, the No. of entries in the experiment with Mus musculus [2] was 50.2%; in the experiment on Mus musculus [3] it was 11.5; with Mus musculus [5], 13. Also, the Spent time with Mus musculus [4] turned out to be 0.0348 h.

In the case of `COc1ccc(/C=C2\OC(=O)c3cc([N+](=O)[O-])c([N+](=O)[O-])cc32)cc1`, the “Total number of entries” value with Mus musculus [1] stood at 22.2. The No. of entries is reported as 51.7% in the experiment on Mus musculus [2], 10.5 in the experiment on Mus musculus [3] and 11.7 in the experiment with Mus musculus [5]. The Spent time in the experiment with Mus musculus [4] was found to be 0.0359 h.

Regarding `C=C(C)[C@@H]1[C@H]2OC(=O)[C@@H]1[C@]1(O)C[C@H]3OC34C(=O)O[C@H]2[C@@]41C.CC(C)(O)[C@@H]1[C@H]2OC(=O)[C@@H]1[C@]1(O)C[C@H]3OC34C(=O)O[C@H]2[C@@]41C` (stereo not given in full) [PICROTOXIN], in the experiment with Mus musculus [1], the “Total number of entries” value came to 11.8. Further, the No. of entries was found to be 19% in the experiment with Mus musculus [2], 9.4 in the experiment with Mus musculus [3] and 2.5 in the experiment on Mus musculus [5]. The Spent time in the experiment with Mus musculus [4] came out at 0.00739 h.

In the case of `COc1ccc(/C=C2\OC(=O)c3ccccc32)cc1`, in the experiment on Mus musculus [1], the “Total number of entries” value is 20.1. In addition, the No. of entries is recorded as 64.1% with Mus musculus [2], 7.1 in the experiment on Mus musculus [3] and 13 in the experiment on Mus musculus [5]. Also, in the experiment on Mus musculus [4], the Spent time was 0.0493 h.

On to `CSc1ccc(/C=C2\OC(=O)c3ccccc32)cc1`, for which the “Total number of entries” value in the experiment on Mus musculus [1] amounted to 17.7. The No. of entries in the experiment on Mus musculus [2] is given as 49.5%; in the experiment on Mus musculus [3], 9.9; with Mus musculus [5], 7.9. The Spent time in the experiment with Mus musculus [4] is 0.0363 h.

Regarding `O=C1O/C(=C\c2ccc([N+](=O)[O-])cc2)c2ccccc21`, the “Total number of entries” value with Mus musculus [1] stood at 16.3. For the same compound, the No. of entries with Mus musculus [2] is on record as 57.2%; with Mus musculus [3], 7.3; in the experiment on Mus musculus [5] it was 9. The Spent time in the experiment with Mus musculus [4] amounted to 0.0441 h.

For `O=C1O/C(=C\c2ccc(Cl)cc2)c2ccccc21`, in the experiment with Mus musculus [1], the “Total number of entries” value is reported as 16.5. Further, the No. of entries in the experiment with Mus musculus [2] worked out at 55.8%; in the experiment with Mus musculus [3], 8.5; in the experiment on Mus musculus [5], 8. Further, in the experiment with Mus musculus [4], the Spent time was 0.0444 h.

In the case of `O=C1O/C(=C\c2ccc3c(c2)OCO3)c2ccccc21`, the “Total number of entries” value in the experiment on Mus musculus [1] is reported as 20.2. In addition, the No. of entries is listed as 54.4% in the experiment with Mus musculus [2], 9 in the experiment with Mus musculus [3] and 11.2 with Mus musculus [5]. The Spent time with Mus musculus [4] was 0.0418 h.

For `CS(=O)(=O)c1ccc(/C=C2\OC(=O)c3ccccc32)cc1`, the “Total number of entries” value in the experiment on Mus musculus [1] is recorded as 16.4. For the same compound, the No. of entries is reported as 69.9% in the experiment with Mus musculus [2], 5.6 in the experiment with Mus musculus [3] and 10.6 in the experiment on Mus musculus [5]. Further, the Spent time in the experiment with Mus musculus [4] was found to be 0.052 h.

Regarding `CCCCCCCCCCCC(=O)OCCOCC(OCCO)C1OCC(OCCO)C1OCCO` (stereo not given), the “Total number of entries” value in the experiment on Mus musculus [1] came to 18.5. Besides, the results for the No. of entries with Mus musculus [2], with Mus musculus [3] and in the experiment on Mus musculus [5] were 51.2%, 8.9 and 9.6, respectively. In addition, the Spent time in the experiment on Mus musculus [4] came to 0.034 h.

As for `COc1cc(/C=C2\OC(=O)c3ccccc32)cc(OC)c1OC`, the “Total number of entries” value in the experiment with Mus musculus [1] is 17.3. Further, the No. of entries stood at 44.8% in the experiment on Mus musculus [2], 9 with Mus musculus [3] and 8.3 in the experiment with Mus musculus [5]. Moreover, in the experiment on Mus musculus [4], the Spent time was found to be 0.0296 h.
